Assay results as given in article PMC3914206.

What was measured:
Assay type in all cases: binding
panel of 442 kinases [1] = biological target: T1, panel of 442 kinases (Homo sapiens, UniProt P07949, M918T); details: Compound Concentration 10 µM
T1 construct: purchased KINOMEscan
From the text: (§1) We assessed the selectivity of members of this scaffold using the KINOMEscan methodology across a near comprehensive panel of 442 kinases [[18,27]].

panel of 442 kinases [2] = biological target: panel of 442 kinases (Homo sapiens, UniProt P19784); details: Compound Concentration 10 µM
From the text: as §1

panel of 442 kinases [3] = biological target: T2, panel of 442 kinases (Homo sapiens, UniProt P42681); details: kinase TXK; compound concentration 10 µM
T2 construct: purchased KINOMEscan
T2 sequence (P42681 1-527): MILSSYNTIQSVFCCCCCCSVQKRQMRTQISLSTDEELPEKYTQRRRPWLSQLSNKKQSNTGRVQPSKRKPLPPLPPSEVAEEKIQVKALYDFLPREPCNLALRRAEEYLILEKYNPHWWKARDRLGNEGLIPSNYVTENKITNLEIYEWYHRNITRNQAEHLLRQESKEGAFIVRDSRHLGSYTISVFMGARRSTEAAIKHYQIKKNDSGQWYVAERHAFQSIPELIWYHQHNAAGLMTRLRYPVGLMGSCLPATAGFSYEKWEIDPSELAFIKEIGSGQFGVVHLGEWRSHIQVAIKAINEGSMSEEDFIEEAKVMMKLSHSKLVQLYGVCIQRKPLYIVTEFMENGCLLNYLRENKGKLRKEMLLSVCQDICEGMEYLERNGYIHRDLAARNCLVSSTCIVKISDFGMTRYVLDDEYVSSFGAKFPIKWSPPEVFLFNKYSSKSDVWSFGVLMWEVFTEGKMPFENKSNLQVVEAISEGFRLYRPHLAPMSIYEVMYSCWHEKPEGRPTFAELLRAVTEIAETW
From the text: as §1

T1 sequence (P07949 29-1114 M918T): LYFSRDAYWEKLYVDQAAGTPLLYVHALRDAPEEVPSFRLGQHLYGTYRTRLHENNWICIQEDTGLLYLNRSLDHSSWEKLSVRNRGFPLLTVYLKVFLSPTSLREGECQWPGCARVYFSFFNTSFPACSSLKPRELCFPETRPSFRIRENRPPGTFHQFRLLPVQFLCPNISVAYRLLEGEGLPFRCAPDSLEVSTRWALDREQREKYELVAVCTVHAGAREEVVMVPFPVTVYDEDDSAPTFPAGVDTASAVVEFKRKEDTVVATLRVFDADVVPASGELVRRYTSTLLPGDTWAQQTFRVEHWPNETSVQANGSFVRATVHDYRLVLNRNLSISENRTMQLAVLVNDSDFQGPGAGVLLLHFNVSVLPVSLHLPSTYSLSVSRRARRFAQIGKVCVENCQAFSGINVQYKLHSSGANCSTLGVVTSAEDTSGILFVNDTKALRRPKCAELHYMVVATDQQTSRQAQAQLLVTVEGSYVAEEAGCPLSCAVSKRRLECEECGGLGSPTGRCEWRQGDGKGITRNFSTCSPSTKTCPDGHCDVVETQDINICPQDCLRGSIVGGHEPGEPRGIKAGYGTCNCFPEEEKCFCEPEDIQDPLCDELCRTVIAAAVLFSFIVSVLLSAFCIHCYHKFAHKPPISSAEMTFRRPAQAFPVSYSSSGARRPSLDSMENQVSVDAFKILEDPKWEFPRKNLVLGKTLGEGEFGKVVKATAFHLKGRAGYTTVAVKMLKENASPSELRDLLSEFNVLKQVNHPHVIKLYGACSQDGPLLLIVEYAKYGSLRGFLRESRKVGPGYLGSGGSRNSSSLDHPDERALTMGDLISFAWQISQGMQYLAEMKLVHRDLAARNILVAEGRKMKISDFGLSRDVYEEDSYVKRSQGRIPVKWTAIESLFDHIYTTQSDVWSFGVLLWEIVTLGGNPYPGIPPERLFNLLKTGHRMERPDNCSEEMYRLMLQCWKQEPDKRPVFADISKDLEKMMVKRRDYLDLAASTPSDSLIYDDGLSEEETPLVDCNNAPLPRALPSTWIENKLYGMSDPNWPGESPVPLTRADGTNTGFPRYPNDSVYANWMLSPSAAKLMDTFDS
panel of 442 kinases (Homo sapiens, UniProt P19784), sequence (P19784 whole entry): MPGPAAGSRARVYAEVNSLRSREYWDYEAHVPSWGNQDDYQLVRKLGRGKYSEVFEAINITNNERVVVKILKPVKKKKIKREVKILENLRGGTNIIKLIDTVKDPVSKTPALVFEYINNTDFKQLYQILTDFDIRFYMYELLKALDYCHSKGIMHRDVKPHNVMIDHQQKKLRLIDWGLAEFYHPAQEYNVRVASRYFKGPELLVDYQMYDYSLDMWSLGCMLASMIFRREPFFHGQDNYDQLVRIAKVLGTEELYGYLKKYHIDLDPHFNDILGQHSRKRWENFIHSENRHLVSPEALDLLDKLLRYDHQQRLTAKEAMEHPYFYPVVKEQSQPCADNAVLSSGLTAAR

| SMILES | KINOMEscan: RET(M918T) (panel of 442 kinases [1]) | KINOMEscan: CSNK2A2 (panel of 442 kinases [2]) | % Ctrl, TXK (panel of 442 kinases [3]) [% Ctrl] |
| --- | --- | --- | --- |
| COc1cc(C(=O)N2CCC(N3CCN(C)CC3)CC2)ccc1Nc1ncc2c(n1)N(C1CCCC1)c1ccccc1C(=O)N2C [Compound 25, 11-cyclopentyl-2-((2-methoxy-4-(4-(4-methylpiperazin-1-yl)piperidine-1-carbonyl)phenyl)amino)-5-methyl-5H-benzo[e]pyrimido[5,4-b][1,4]diazepin-6(11H)-one] | 94 | 100 | 95 |
| COc1cc(C(=O)N2CCC(N3CCN(C)CC3)CC2)ccc1Nc1ncc2c(n1)N1CCc3cccc(c31)C(=O)N2C [Compound 24] | 81 |  | 93 |
| COc1cc(C(=O)N2CCC(N3CCN(C)CC3)CC2)ccc1Nc1ncc2c(n1)N(C)c1ccccc1C(=O)N2C [15 (LRRK2-IN-1)] | 100 | 93 | 91 |
| CCOc1cc(C(=O)N2CCC(N3CCN(C)CC3)CC2)ccc1Nc1ncc2c(n1)N(C1CCCC1)c1ccccc1C(=O)N2C [Compound 26] | 100 | 97 | 100 |
